Data set [1] is described as follows: Chemical stability of coumarin core towards organic bases. To be noted: prolonged time at ambient temperature; gives equimolar ring-opened product 5. In kind it is physicochemical.
A further data set deals with Mtb H37Rv. Put plainly: Mtb H37Rv growth inhibition. In kind it is cell-based, Mycobacterium tuberculosis. To be noted: for MIC90: Mycobacterium tuberculosis, H37RV, read-out: Mtb H37Rv MIC90; for MICs: in words.
Data set [2] in a line: Kinetic aqueous solubility. The class given is physicochemical. The conditions noted are these: pH 7.4, water, kinetic from dmso stock.

In brackets after ≈: the same amount, converted by molar mass.

Consider `Cc1cc2oc(=O)cc(-c3ccc(F)cc3)c2c(C)c1-c1ccc(CN2CCOCC2)cc1` [Compound 4], for which the “stability towards organic bases such as morpholine” value in data set [1] is reported as “not stable”.

Take `Cc1cc2nccc(-c3ccccc3)c2c(C)c1-c1ccc(CN2CCOCC2)cc1` [Compound 8]: in the data set with Mtb H37Rv, the MIC90 came out at 0.45 µM (≈ 0.184 µg/mL).

Turning to `Cc1cc2nccc(-c3ccccc3Cl)c2c(C)c1-c1ccc(CN2CCOCC2)cc1` [Compound 15a], the MIC90 in the data set with Mtb H37Rv was 0.3 µM (≈ 0.133 µg/mL).

For `Cc1cc2nccc(-c3cccc(Cl)c3)c2c(C)c1-c1ccc(CN2CCOCC2)cc1` [Compound 15b], the MIC90 in the data set on Mtb H37Rv came to 1.5 µM (≈ 0.664 µg/mL).

With `Cc1cc2nccc(-c3ccc(Cl)cc3)c2c(C)c1-c1ccc(CN2CCOCC2)cc1` [Compound 15c], the MIC90 in the data set on Mtb H37Rv is above 80 µM.

Regarding `Cc1cc2nccc(-c3ccccc3C#N)c2c(C)c1-c1ccc(CN2CCOCC2)cc1` [Compound 15d], in the data set on Mtb H37Rv, the MIC90 worked out at 2.5 µM (≈ 1.08 µg/mL).

Take `CCc1ccccc1CNc1ccnc2cc(C)c(-c3ccc(CN4CCOCC4)cc3)c(C)c12` [Compound 15e]: in the data set on Mtb H37Rv, the MIC90 turned out to be 2.5 µM (≈ 1.16 µg/mL).

Take `Cc1cc2nccc(-c3ccccc3C(=O)O)c2c(C)c1-c1ccc(CN2CCOCC2)cc1` [Compound 15f]: the MIC90 in the data set on Mtb H37Rv amounted to 40 µM (≈ 18.1 µg/mL).

`Cc1cc2nccc(-c3ccccc3C(N)=O)c2c(C)c1-c1ccc(CN2CCOCC2)cc1` [Compound 15g]: the MIC90 in the data set on Mtb H37Rv came out at 20 µM (≈ 9.03 µg/mL).

As to `COc1cccc(-c2ccnc3cc(C)c(-c4ccc(CN5CCOCC5)cc4)c(C)c23)c1Cl` [Compound 15h], the MIC90 in the data set with Mtb H37Rv stood at 10 µM (≈ 4.73 µg/mL).

In the case of `Cc1cc2nccc(-c3cccnc3)c2c(C)c1-c1ccc(CN2CCOCC2)cc1` [Compound 15j], the solubility (kinetic) in data set [2] is above 150 µM.

Turning to `COc1ccncc1-c1ccnc2cc(C)c(-c3ccc(CN4CCOCC4)cc3)c(C)c12` [Compound 15k], the MIC90 with Mtb H37Rv stood at 2.5 µM (≈ 1.1 µg/mL).

Regarding `COc1ncccc1-c1ccnc2cc(C)c(-c3ccc(CN4CCOCC4)cc3)c(C)c12` [Compound 15l], the MIC90 in the data set on Mtb H37Rv was found to be 2.5 µM (≈ 1.1 µg/mL).

Consider `Cc1cc2nccc(-c3ccnn3C)c2c(C)c1-c1ccc(CN2CCOCC2)cc1` [Compound 15m], for which the MIC90 with Mtb H37Rv came out at 2.5 µM (≈ 1.03 µg/mL). This compound also had a solubility (kinetic) in data set [2] above 150 µM.

`Cc1cc2nccc(-c3cncnc3)c2c(C)c1-c1ccc(CN2CCOCC2)cc1` [Compound 15n]: in the data set with Mtb H37Rv, the MIC90 is 2.5 µM (≈ 1.03 µg/mL). For the same compound, the solubility (kinetic) in data set [2] was above 150 µM.

Consider `Cc1cc2nccc(-c3ccccc3Cl)c2c(C)c1-c1ccncc1` [Compound 15p], for which the MIC90 with Mtb H37Rv is 5 µM (≈ 1.72 µg/mL).

With `CCOC(=O)c1cc(-c2ccccc2Cl)c2c(C)c(-c3ccncc3)c(C)cc2n1` [Compound 18], the MIC90 in the data set with Mtb H37Rv is 10 µM (≈ 4.17 µg/mL).

`Cc1cc2nc(CO)cc(-c3ccccc3Cl)c2c(C)c1-c1ccncc1` [Compound 19]: the MIC90 in the data set on Mtb H37Rv amounted to 3.75 µM (≈ 1.41 µg/mL).

Regarding `Cc1cc2nc(C(C)(C)O)cc(-c3ccccc3Cl)c2c(C)c1-c1ccncc1` [Compound 20], the MIC90 in the data set on Mtb H37Rv was above 40 µM.

In the case of `Cc1cc2nc(C(N)=O)cc(-c3ccccc3Cl)c2c(C)c1-c1ccncc1` [Compound 21a], the MIC90 in the data set with Mtb H37Rv was found to be 1.25 µM (≈ 0.485 µg/mL).

As to `CNC(=O)c1cc(-c2ccccc2Cl)c2c(C)c(-c3ccncc3)c(C)cc2n1` [Compound 21b], in the data set with Mtb H37Rv, the MIC90 was found to be 0.8 µM (≈ 0.322 µg/mL) and the MICs result is “sub-micromolar”. Also, the CFU reduction in the data set with H37Rv (lung, once-daily oral, dose-dependent, up to 50 mg/kg, 8-day acute model) is around 4 log CFU. Also, the tolerability entry with H37Rv (mice, up to the highest dose of 50 mg/kg) was “no tolerability issue observed”.

On to `Cc1cc2nc(C(=O)NC(C)C)cc(-c3ccccc3Cl)c2c(C)c1-c1ccncc1` [Compound 21c], for which the MIC90 in the data set with Mtb H37Rv is 2.5 µM (≈ 1.07 µg/mL).

For `Cc1cc2nc(C(=O)NCCF)cc(-c3ccccc3Cl)c2c(C)c1-c1ccncc1` [Compound 21d], in the data set on Mtb H37Rv, the MIC90 stood at 1.25 µM (≈ 0.542 µg/mL).

Consider `Cc1cc2nc(C(=O)NCCO)cc(-c3ccccc3Cl)c2c(C)c1-c1ccncc1` [Compound 21e], for which, in the data set on Mtb H37Rv, the MIC90 was determined as 0.3 µM (≈ 0.13 µg/mL) and the MICs entry is reported as “sub-micromolar”.

For the compound `Cc1cc2nc(C(=O)NCCN(C)C)cc(-c3ccccc3Cl)c2c(C)c1-c1ccncc1` [Compound 21f], in the data set with Mtb H37Rv, the MIC90 was found to be 0.3 µM (≈ 0.138 µg/mL) and the MICs entry is “sub-micromolar”.

As to `Cc1cc2nc(C(=O)N3CCCC3)cc(-c3ccccc3Cl)c2c(C)c1-c1ccncc1` [Compound 23b], the MIC90 with Mtb H37Rv is 5 µM (≈ 2.21 µg/mL).

In general, MIC90 refers to the lowest concentration that inhibits either 90% of growth or 90% of the strains tested, depending on the study. By kinetic solubility is commonly meant solubility judged after dilution from a stock solution rather than from solid.

Source of the values: paper PMC6233306 (Bioorganic & medicinal chemistry letters, 2018).
